US6544750B1, “Peptide analogs as selective inhibitors of thrombin activation of protease activated receptor 1” (Thromgen, Inc., priority 1999, dated 2003)
Ends that are not written are not given here.

How the values were obtained:
[1] = system: Normal human lung fibroblasts (NHLF); assay: α-thrombin-induced calcium mobilization in fibroblasts (fura-2); format: cell-based; settings: 0.2 mM peptide; for Ca2+ % Inhibition At 0.2 mM Peptide: thrombin-induced calcium mobilization in fibroblasts
Description: The second assay developed to assess peptides from the combinatorial libraries uses inhibition of α-thrombin-induced calcium mobilization in fibroblasts. Normal human lung fibroblasts (NHLF) were purchased from Clonetics, San Diego, Calif., an affiliate of Bio-Wittaker, Walkersville, Md. The cytoplasmic free Ca^2+ concentration ([Ca^2+]i) was measured using the fluorescent Ca^2+ indicator fura-2 (Molecular Probes, Inc., Eugene, Oreg.). Suspension of fibroblasts in Hepes-Tyrode's buffer were loaded with fura-2 by incubation at 37° C. with 2 μM fura-2/acetoxymethyl ester for 45 minutes according to the method of Rasmussen et al., J. Biol. Chem. 268, 14322 (1993). The labeled fibroblasts were separated from excess probe by washing by centrifugation at 1000 rpm (180×g). Aliquots of the labeled fibroblasts were transferred into a quartz cuvette with a magnetic stirrer, which was then placed in a thennostatically controlled chamber at 37° C. in a fluorescence spectrophotometer (Perkin-Elmer LS50B spectrofluorometer, Chicago, Ill.). Reagents, test peptide (SEQ ID NO: 5) (from 0.2 mM to effective lower concentration), and α-thrombin (2-4 nM), were sequentially added directly to the cuvette. The excitation wavelengths varied between 340 and 380 nm. Fluorescence was measured by recording emitted light at 510 nm as reported by Fisher et al., Mol Pharm. 35, 195 (1989). The minimum emission was determined on a solubilized fibroblast sample in the presence of 10 mM EDTA; maximum emission was determined on the same sample with 10 mM Ca^2+ added. The intrafibroblast free Ca^2+ concentration was calculated by the method of Grykiewicz et al., J. Biol. Chem. 260, 3440 (1985). The ratio of the fluorescence readings was calculated as R=340/380 nm and processed according to the equation [Ca^2+]i=KD((R−Rmim)/Rmax−R)) (Sf2/Sb2) to determine the intrafibroblast free Ca^2+ concentration. The KD for fura-2 was assumed to be 224 nM. Rmax and Rmin are the maximum and minimum fluorescence ratios measured at the end of the experiment, respectively; Sf2 and Sb2 are the fluorescence values at 380 nm in the absence and presence of saturating [Ca 2+], respectively. The reaction was monitored for 3-5 minutes. […] In FIG. 4, peptide RGDWC (SEQ ID NO: 20) at 0.2 mM inhibited 31% of 4 nM α-thrombin-induced Ca^2+ mobilization in fibroblasts.

[2] = system: platelets (platelet-rich plasma); assay: γ-thrombin-induced platelet aggregation in platelet-rich plasma; format: cell-based, human; settings: for Fold Increase in Aggregation Inhibition over RPPGF: γ-thrombin, compared to RPPGF at 0.2 mM
Description: Fresh whole blood was collected and mixed with 0.013 M sodium citrate and platelet-rich plasma was prepared according to the method of Meloni et al., J. Biol. Chem. 266, 6786 (1991). Platelet-rich plasma with a normalized platelet count between 2-2.5×10^8 platelets/ml was added to a cuvette of an aggregometer (Chronlog Corp., Havertown, Pa.), standardized using the protocol of Meloni et al., supra. Peptides to be examined were added to the cuvette and the mixture stabilized for a few moments. Once the baseline was stabilized, γ-thrombin (10-70 NM) (Haematologic Technologies, Essex Junction, Vt.) was added to determine the minimal concentration of the agonist necessary to achieve full platelet aggregation. All investigations with peptides were performed using threshold concentrations of γ-thrombin. Aggregation was allowed to proceed for 5 minutes before stopping. When ADP-induced platelet aggregation studies were performed, 1-5 μM ADP (Sigrna) was added to the cuvette containing platelet-rich plasma.

[3] = molecular target: biotin-NAT12 (NATLDPRSFLLR, peptide from PAR1) (Homo sapiens, UniProt P25116); assay: Biotin-NAT12 binding assay to peptides coupled to microtiter plates; settings: relative to RPPGF given arbitrary binding level of 1
Description: A third assay was developed to ascertain the ability of biotin-NAT12 (NATLDPRSFLLR, SEQ ID NO: 41) to directly bind to peptides linked to microtiter plates. In this assay, peptide analogs were linked to microtiter plate cuvette wells by incubation of the peptide in 0.1 M Na2CO3, pH 9.6 buffer overnight at 4° C. After coupling the peptide to the cuvette well, the wells were dumped and each well was blocked with 1% bovine serun albumin in 0.01 M Na3PO4, 0.15 M NaCl, at pH 7.4. After incubation for 1 hour, the wells were dumped and washed three times with PBS-Tween. The wells were then incubated with biotin-NAT12. The amount of biotin-NAT12 bound was determined by adding streptavidin-peroxidase followed by adding turbo TMB (Pierce).
In decreasing order of binding level, these peptides include: RGKSC, RGKMC, RGKHC, RGKKC, RGKFC, RGKLC, RGKWC, and RGKVC (SEQ ID NOS 18, 7, 13, 14, 11, 1, 5 and 19, respectively). […] The best to least RGDO4C (SEQ ID NO: 44) peptides to bind biotin-NAT12 listed in Table VI are: RGDSC, RGDGC, RGDQC, RGDEC, RGDIC, RGDPC, RGDDC, and RGDYC (SEQ ID NOS 34, 28, 23, 22, 36, 38, 27 and 35, respectively). A solid phase peptide-peptide binding assay was used to determine biotin-NAT12 binding to library peptides. Test peptides in 0.1 M Na2CO3, pH 9.6 buffer, at 10 μg/well in 50 μl volume, were coupled to microtiter plate wells by overnight incubation at 4° C. After incubation, the contents of the wells were discarded and the wells were washed with a pH 7.4 buffer containing 0.01 M Na3PO4, 0.15 M NaCl, and 0.01% Tween 20. After blocking each well with 1% radioimmunoassay grade bovine serum albumin, the linked peptides were incubated with 100 μl of 100 μM biotin-NAT12 for 1 hour at 37° C. After incubation, the contents of the wells were dumped and the wells were washed three times (100 μl/well each time) with the buffer identified above. Each well then was incubated with 100 μl of 2 μg/ml solution of Immuno-Pure streptoavidin horeseradish peroxidase conjugate (Pierce Chemical Co., […], Ill.) for 1 hour at room temperature. The contents of the wells were discarded and the wells were washed three times as described above. The wells were then incubated with 100 μl of peroxidase-specific fast reacting substrate, turbo-3,3′,5,5′-tetramethylbenzidine (turbo-TMB, Pierce) for 5 minutes at room temperature and the developing color reaction was stopped by the addition of 100 μof 1 M phosphoric acid. The absorbance was measured at 450 nm using a Microplate Auto Reader EL311 (Bio-Tek, Winooski, Vt.).

| Substance | Level of Binding to Biotin-NAT12 ([3]; RGKO4C sublibrary) | Level of Binding to Biotin-NAT12 ([3]; RGDO4C sublibrary) | Ca2+ % Inhibition At 0.2 mM Peptide ([1]; RGKO4C sublibrary) [%] | Ca2+ % Inhibition At 0.2 mM Peptide ([1]; RGDO4C sublibrary) [%] | Fold Increase in Aggregation Inhibition over RPPGF ([2]; RGDO4C sublibrary) [fold] | further results |
| --- | --- | --- | --- | --- | --- | --- |
| RGKMC: peptide of the H-R-G-K-O4-C-NH2 sublibrary (H-RGKMC-NH2) | 2.1 |  | 7.95 |  |  | Fold Increase in Aggregation Inhibition over RPPGF ([2]; RGKO4C sublibrary, platelet-rich plasma): 1.3 fold |
| RGKFC: peptide of the H-R-G-K-O4-C-NH2 sublibrary (H-RGKFC-NH2) | 1.5 |  | 2.74 |  |  |  |
| Arg-Gly-Asp-Trp-Cys (RGDWC-NH2) [peptide of the H-R-G-D-O4-C-NH2 sublibrary] |  | 0.374 |  | 31.9 | 31.7 | effect on thrombin-induced Ca2+ mobilization (in words) ([1]; 4 nM α-thrombin): almost had no effect; inhibition of α-thrombin-induced Ca2+ mobilization ([1]; 4 nM α-thrombin, fibroblasts): 31%; concentration down to which peptide inhibited γ-thrombin-induced platelet aggregation ([2]; 70 nM γ-thrombin): ≥ 25 µM; peptide concentration at which γ-thrombin-induced platelet aggregation returned ([2]; 70 nM γ-thrombin): 6.25 µM; peptide concentration that abolished (completely inhibited) γ-thrombin-induced platelet aggregation ([2]; 70 nM γ-thrombin, platelet-rich plasma): 0.2 mM |
| RGDKC: peptide of the H-R-G-D-O4-C-NH2 sublibrary (H-RGDKC-NH2) |  | 0.67 |  | 28.1 | 7.5 |  |
| RGDIC: peptide of the H-R-G-D-O4-C-NH2 sublibrary (H-RGDIC-NH2) |  | 1.22 |  | 9.3 | 3.8 |  |
| RGDNC: peptide of the H-R-G-D-O4-C-NH2 sublibrary (H-RGDNC-NH2) |  | 0.739 |  | 44.3 | 5 |  |
| RGDEC: peptide of the H-R-G-D-O4-C-NH2 sublibrary (H-RGDEC-NH2) |  | 1.28 |  | 1.96 | 20 |  |
| RGDYC: peptide of the H-R-G-D-O4-C-NH2 sublibrary (H-RGDYC-NH2) |  | 1.05 |  | 16.4 | 5 |  |
| RGKSC: peptide of the H-R-G-K-O4-C-NH2 sublibrary (H-RGKSC-NH2) | 2.2 |  | 0.01 |  |  |  |
| RGDTC: peptide of the H-R-G-D-O4-C-NH2 sublibrary (H-RGDTC-NH2) |  | 0.746 |  | 0 | 7.5 |  |
| RGDVC: peptide of the H-R-G-D-O4-C-NH2 sublibrary (H-RGDVC-NH2) |  | 0.723 |  | 2.56 | 15 |  |
| RGDRC: peptide of the H-R-G-D-O4-C-NH2 sublibrary (H-RGDRC-NH2) |  | 0.99 |  | 0 | 5 |  |
| RGKNC: peptide of the H-R-G-K-O4-C-NH2 sublibrary (H-RGKNC-NH2) | 1.2 |  | 0 |  |  |  |
| RGKDC: peptide of the H-R-G-K-O4-C-NH2 sublibrary (H-RGKDC-NH2) | 0.82 |  | 26.7 |  |  |  |
| RGKHC: peptide of the H-R-G-K-O4-C-NH2 sublibrary (H-RGKHC-NH2) | 2.1 |  | 31.2 |  |  |  |
| RGKEC: peptide of the H-R-G-K-O4-C-NH2 sublibrary (H-RGKEC-NH2) | 0.926 |  | 13.8 |  |  |  |
| RGKKC: peptide of the H-R-G-K-O4-C-NH2 sublibrary (H-RGKKC-NH2) | 1.8 |  | 38.9 |  |  |  |
| RGKGC: peptide of the H-R-G-K-O4-C-NH2 sublibrary (H-RGKGC-NH2) | 1.0 |  | 12.4 |  |  |  |

The next lines start with results.

| Level of Binding to Biotin-NAT12 ([3]; RGKO4C sublibrary) | Level of Binding to Biotin-NAT12 ([3]; RGDO4C sublibrary) | Substance | Ca2+ % Inhibition At 0.2 mM Peptide ([1]; RGKO4C sublibrary) [%] | Ca2+ % Inhibition At 0.2 mM Peptide ([1]; RGDO4C sublibrary) [%] | Fold Increase in Aggregation Inhibition over RPPGF ([2]; RGDO4C sublibrary) [fold] | further results |
| --- | --- | --- | --- | --- | --- | --- |
|  | 1.39 | RGDGC: peptide of the H-R-G-D-O4-C-NH2 sublibrary (H-RGDGC-NH2) |  | 9.9 | 7.5 |  |
|  | 0.98 | RGDLC: peptide of the H-R-G-D-O4-C-NH2 sublibrary (H-RGDLC-NH2) |  | 0 | 7.5 |  |
|  | 1.12 | RGDPC: peptide of the H-R-G-D-O4-C-NH2 sublibrary (H-RGDPC-NH2) |  | 4.13 |  |  |
|  | 0.8 | RGDAC: peptide of the H-R-G-D-O4-C-NH2 sublibrary (H-RGDAC-NH2) |  | 11 |  |  |
| 0.374 |  | RGKQC: peptide of the H-R-G-K-O4-C-NH2 sublibrary (H-RGKQC-NH2) | 28 |  |  |  |
| 1.2 |  | RGKPC: peptide of the H-R-G-K-O4-C-NH2 sublibrary (H-RGKPC-NH2) | 31.13 |  |  |  |
| 1.2 |  | RGKVC: peptide of the H-R-G-K-O4-C-NH2 sublibrary (H-RGKVC-NH2) | 17.3 |  |  |  |
| 0.689 |  | RGKAC: peptide of the H-R-G-K-O4-C-NH2 sublibrary (H-RGKAC-NH2) | 5.2 |  |  |  |
